Laboratory results taken from paper PMC6273140, “Anti-Inflammatory Chemical Profiling of the Australian Rainforest Tree Alphitonia petriei (Rhamnaceae)” (Molecules, 2016).
Where two headings read alike, the source gives them in different places.

Columns and labels:
[1] = system: Bacillus subtilis; parameters: method as in earlier work; settings: cited from earlier work
[2] = Cell viability by the Alamar Blue assay (cytotoxicity); assay type: cell-based; settings: mouse, RAW 264.7, 24 h, mean ± SD, read-out: Cytotoxicity (LC50 in μM) (n = 8)
Procedure: (§1) RAW 264.7 macrophages were grown in 175 cm^2 flasks on DMEM containing 5% foetal bovine serum (FBS) that was supplemented with penicillin (100 μg/mL), streptomycin (100 μg/mL) and L-glutamine (2 mM). The cell line was maintained in 5% CO2 at 37 °C, with media being replaced every 3–4 days. Once cells had grown to confluence in the culture flask, they were removed using a rubber policeman, as opposed to using trypsin, which can remove membrane-bound receptors. The cell suspension was concentrated by centrifugation for 3 min at 900 rpm and re-suspended in a small volume of fresh DMEM (with 1% antibiotics and 5% FBS); cell densities were estimated using a Neubauer counting chamber. The cell concentration was adjusted with DMEM (with 1% antibiotics and 5% FBS) to obtain 60,000 cells/100 μL cell suspension. An aliquot of 100 μL of this cell suspension was dispensed into the wells of 96-well plates. Plates were incubated at 37 °C, 5% CO2 for 18 h before the activation experiments were carried out.
(§2) For assays, 90 μL of each concentration of compounds (8 concentrations made by serial dilution from 0 µg/mL to 36 µg/mL compound in DMEM) were added an hour prior to addition of 10 µL of activator. A combination of 10 μg·mL^−1 LPS and 10 U·mL^−1 (1 unit = 0.1 ng/mL) IFN-γ, were used for activation. After activation, the cells were incubated for 24 h at 37 °C and then NO, TNF-α and cell viability was determined. Unactivated cells (exposed to media alone) were used as negative control and activated cells as positive control.
One hundred microlitres of Alamar Blue solution (10% Alamar Blue (Resazurin) in DMEM media) was added to each well, incubated at 37 °C for 2 h. After incubation, fluorescence intensity was measured with the microplate reader (excitation at 530 nm and emission at 590 nm) and results were expressed as a percentage of the intensity of that in control cells, after background fluorescence was subtracted.
(§3) Data calculations were performed using MS-Excel 2010 software. IC50 values were obtained by using the sigmoidal dose–response function in GraphPad Prism. The results were expressed as mean ± standard deviation (SD).

[3] = system: TNF-α production in LPS + IFN-γ activated RAW 264.7 macrophages; assay: Inhibition of LPS + IFN-γ induced TNF-α production (ELISA); assay type: cell-based; settings: for IC50: Mus musculus, read-out: TNF-α Inhibition (IC50 in µM) (n = 3)
Procedure: as §1, §2
The diluted supernatants were used for determination of TNF-α using a commercial sandwich ELISA (Peprotech) according to the manufacturer’s protocol. In brief, the capture antibody was used at a concentration of 1.5 μg·mL^−1 in PBS (1.9 mM NaH2PO4, 8.1 mM Na2HPO4, 154 mM NaCl) (pH 7.4). Serial dilutions of TNF-α standard from 0 to 10,000 pg·mL^−1 in diluent (0.05% Tween-20, 0.1% BSA in PBS) were used as internal standard. TNF-α was detected with a biotinylated second antibody and an Avidin peroxidase conjugate with TMB as detection reagent. The colour development was monitored at 655 nm, taking readings every 5 min. After approximately 30 min the reaction was stopped using 0.5 M sulphuric acid and the absorbance was measured at 450 nm using a POLARstar Omega microplate reader (BMG Labtech, Mornington, Australia), expressed as a percentage in control cells after conversion of the concentrations, using a standard curve constructed with defined concentrations of TNF-α. Curve fitting of this standard curve and extrapolation of experimental data were performed using non-linear regression analysis.
as §3

[4] = system: NO production in LPS + IFN-γ activated RAW 264.7 macrophages; assay: Inhibition of LPS + IFN-γ induced nitric oxide production (Griess assay); assay type: cell-based; settings: for IC50: Mus musculus, read-out: NO Inhibition (IC50 in μM) (n = 8); for anti-inflammatory activity (in words): NO and TNF-α
Procedure: as §1, §2
Nitric oxide was determined by Griess reagent quantification of nitrite. Griess reagent was freshly made up of equal volumes of 1% sulfanilamide and 0.1% napthyethylene-diamine in 5% HCl. From each well, 50 µL of supernatant was transferred to a fresh 96-well plate and mixed with 50 µL of Griess reagent and measured at 540 nm in a POLARstar Omega microplate reader (BMG Labtech, Mornington, Australia). The concentration of nitrite was calculated using a standard curve with […] (0–500 μM), and linear regression analysis.
as §3

[5] = system: SCC4 OSCC cells; parameters: method as in doi:10.1016/j.jff.2015.07.017; settings: read-out: suppression of proliferation IC50; cited from earlier work
[6] = system: SCC2095 OSCC cells; parameters: method as in doi:10.1016/j.jff.2015.07.017; settings: read-out: suppression of proliferation IC50; cited from earlier work
[7] = system: 12-O-tetradecanoylphorbol 13 acetate (TPA)-induced topical inflammation in mice ears; parameters: method as in PMID 16697209; settings: cited from earlier work
[8] = system: NO production in LPS-stimulated RAW 264.7 cells; parameters: method as in PMID 19557361; settings: cited from earlier work
[9] = RAW 264.7 macrophages activated with LPS and IFN-γ
[10] = RAW264.7, RAW 264.7, LPS + IFN-γ, 24 h, ELISA, mean ± SD
[11] = RAW264.7, RAW 264.7, LPS + IFN-γ, 24 h, Griess assay, mean ± SD

IC50 [3, 10] [µM]	IC50 [4, 11] [µM]	Structure (SMILES)	CC50 at 24 h [2] [µM]	IC50 ([3]; RAW264.7, 24 h) [µM]	IC50 ([4]; RAW264.7, 24 h) [µM]	CC50 at 24 h [2, 9] [µM]	further results
–	–	C=C(C)C1CCC2(C(=O)O)CCC3(C)C(CCC4C5(C)CC(=O)C(O)C(C)(C)C5CCC43C)C12 (stereo not shown) [2-ketobetulinic acid, reference compound]	–	–	–	–	antibacterial activity [1]: showed antibacterial activity
–	–	C=C(C)[C@@H]1CC[C@]2(C(=O)O)CC[C@]3(C)[C@H](CC[C@@H]4[C@@]5(C)[C@@H](C(=O)O)[C@H](O)C(C)(C)[C@@H]5CC[C@]43C)C12 (stereo partly shown) [Compound 1, emmolic acid]	> 36	> 36	> 36	–	anti-inflammatory activity (in words) ([4]; RAW 264.7, LPS + IFN-γ): inactive
–	–	C=C(C)[C@@H]1CC[C@]2(C(=O)O)CC[C@]3(C)[C@H](CC[C@@H]4[C@@]5(C)C[C@@H](O)[C@H](O)C(C)(C)[C@@H]5CC[C@]43C)[C@@H]12 [Compound 2, alphitolic acid]	18.6 ± 0.8	22.7 ± 1.1	17.6 ± 0.7	–	IC50 [5]: 12 µM; IC50 [6]: 15 µM; inhibition of TPA-induced topical inflammation [7]: inhibit
–	–	C=C(C)[C@@H]1CC[C@]2(C(=O)O)CC[C@]3(C)[C@H](CC[C@@H]4[C@@]5(C)C[C@@H](OC(=O)/C=C/c6ccc(O)cc6)[C@H](O)C(C)(C)[C@@H]5CC[C@]43C)[C@@H]12 [Compound 3, trans-coumaroyl alphitolic acid]	4.8 ± 0.9	10.9 ± 2.3	1.7 ± 0.3	–	increase in potency of NO inhibition compared with compound 2 ([4]; RAW 264.7, LPS + IFN-γ): ten-fold
–	–	C=C(C)[C@@H]1CC[C@]2(C(=O)O)CC[C@]3(C)[C@H](CC[C@@H]4[C@@]5(C)C[C@@H](OC(=O)/C=C\c6ccc(O)cc6)[C@H](O)C(C)(C)[C@@H]5CC[C@]43C)[C@@H]12 [Compound 4, cis-coumaroyl alphitolic acid]	8 ± 0.3	5.6 ± 0.4	3.5 ± 0.5	–	inhibition of TNF-α (in words) ([3]; RAW 264.7, LPS + IFN-γ): strong inhibition
23.5 ± 3.7	8.3 ± 1	C=C(C)[C@@H]1CC[C@]2(C(=O)O)CC[C@]3(C)[C@H](CC[C@@H]4[C@@]5(C)CC[C@H](O)C(C)(C)[C@@H]5CC[C@]43C)[C@@H]12 [Compound 5, betulinic acid]	–	–	–	29.1 ± 4.4	antibacterial activity [1]: showed antibacterial activity
> 333	217 ± 43	O=C(O)Cc1ccccc1Nc1c(Cl)cccc1Cl [Diclofenac, diclofenac sodium, reference compound]	–	–	–	> 333	–
723 ± 261	1160 ± 133	CC(C)Cc1ccc(C(C)C(=O)O)cc1 (stereo not shown) [Ibuprofen, ibuprofen, reference compound]	–	–	–	> 1500	–
–	–	C=C(C)C1CCC2(C(=O)O)CCC3(C)C(CCC4C5(C)CCC(OC(=O)C=Cc6ccc(O)c(O)c6)C(C)(C)C5CCC43C)C12 (stereo not shown) [betulinic acid 3-O-caffeate]	–	–	–	–	NO inhibition (in words) [8]: most active compound

Structure (SMILES)	IC50 [3, 10] [µM]	IC50 [4, 11] [µM]	CC50 at 24 h [2] [µM]	IC50 ([3]; RAW264.7, 24 h) [µM]	IC50 ([4]; RAW264.7, 24 h) [µM]	CC50 at 24 h [2, 9] [µM]	further results
C=C(C)[C@@H]1CC[C@]2(C(=O)O)CC[C@]3(C)[C@H](CC[C@@H]4[C@@]5(C)[C@@H](C(=O)O)[C@H](OC(C)=O)C(C)(C)[C@@H]5CC[C@]43C)C12 (stereo partly shown) [Compound 6, emmolic acid acetate]	> 36	14.7 ± 0.6	13.1 ± 2.5	–	–	–	anti-inflammatory activity (in words) ([4]; RAW 264.7, LPS + IFN-γ): moderate anti-inflammatory activity
